“Also recorded” adds a separate entry of the source. Read-outs that look alike come from different tables or passages of the source. Where only a bound is given, the exact number is not on record here.

The test system of series [1] is MM cell lines (NCI-H929, NCI-H929-1051, OPM2, OPM2-P10). Put plainly: Cell proliferation assay (CTG, 120 h), four cell lines together. The following applies: Homo sapiens, range over four cell lines and both compounds, read-out: antiproliferative IC50 values (range). The format is cell-based. The method, then: Cell Culture Materials: Human multiple myeloma cell lines were purchased from the vendors and cultured at 37° C. with 5% CO2 in the media as indicated in Table 1. Lenalidomide and pomalidomide resistant cell lines were obtained by methods as generally described previously (Lopez-Girona et al Leukemia 2012; 26(11): 2335). All cell lines were kept in log phase, and cell density and viability were monitored by trypan blue exclusion using the Vi-cell XR cell viability analyzer (Beckman Coulter, Brea, CA).
Preparation of Solutions of Test Article: Compounds were plated into black 384-well plates (Corning Inc.) to a final DMSO volume of 0.1% assuming a maximal volume of 50 μL. […]
Cell Proliferation Assays: The effect of compounds on the proliferation/viability of the hematological cell lines (Table 1), was assessed after 120 h incubation using CTG (Promega), according to manufacturer's instructions. […] At 120 h, 25 μL per well of CTG was dispensed by a Multidrop Combi Reagent Dispenser and adenosine triphosphate (ATP) release by viable cells was measured as relative luminescence units after 30 minutes using the Envision platform.
Results. […] Proliferation was assessed using the CellTitre-Glo© assay. […] The IC50 for inhibition of cell growth by the compounds was determined for each cell line using ActivityBase software.

Series [2] concerns MM cell lines. Put plainly: Daratumumab-mediated ADCP assay. It is filed as cell-based, human. The following applies: for daratumumab-mediated ADCP: ARH-77 cell line. As to the method:
ADCP assay: The effect of Compound 2 or pomalidomide on daratumumab-mediated ADCP was determined in a panel of MM cell lines. Monocytes were plated in a 96 well plate at 40,000 cells per well in 100 μL volume of complete AIM-V media containing 50 ng/mL of M-CSF. The cells were allowed to settle onto the plate for 15 minutes at room temperature before placing into 37° C., 5% C02 incubator for 9 days to allow for differentiation into macrophages. The culture media was replenished with fresh complete media every 3-4 days. On the morning of the ADCP assay, the macrophages were serum starved for 2-4 hours at 37° C., 5% C02 before co-culturing with the MM cells. The MM cells were pretreated with sub-lethal concentrations of Compound 2 or pomalidomide for 72 h. On the day of the assay, the MM cells were washed with PBS and labeled with CSFE for 15 minutes. The reaction was stopped with an equal volume of 20% FBS. The cells were washed twice with PBS and resuspended in AIM-V media at 1.6×10^6 cells/mL. Then 50 μL of MM cells was mixed with 50 μL of 2 μg/mL daratumumab for 10 minutes at room temperature before adding to the serum starved macrophages. Each condition was assayed in triplicate. The final volume of the assay was 200 μL containing 10% human serum with an effector to target ratio of […]. The plate was spun at 500 rpm for 1 minute followed by incubation at 37° C., 5% CO2 for 3 h. At the end of the incubation, the plate was washed with 100 μL of PBS and the remaining cells were stained with anti-CD14 and anti-CD138 to identify the macrophages and MM cells, respectively. The plate was washed and the wells were filled with 100 μL of PBS. The macrophages were detached from the bottom of the wells with the addition of 50 μL of 0.25% trypsin. The samples were neutralized with the addition of 50 μL of complete AIM-V media. The samples were analyzed on flow cytometer. The percent phagocytosis was determined by the CSFE/CD14 double positive cells divided by the total number of CD14+ cells times 100.

Series [3] concerns the target T1, CYP2C19 (Homo sapiens, UniProt P33261).
T1 construct: from tissue; host or cells: pooled human liver microsomes
Put plainly: CYP inhibition in pooled human liver microsomes. The format is in vitro ADME. The method, then: (§1) Methods. […] In addition, the compounds were evaluated for their potential to act as a time-dependent inhibitors at the same concentrations mentioned above. […] In addition to appropriate vehicle controls, known direct inhibitors and time-dependent inhibitors of CYP isoforms were included as positive controls. Following the incubation, concentrations of probe substrate metabolites were quantified using established LC/MS/MS methods. The extent of inhibition was expressed as the percentage of control activity.

Series [4] concerns CYP3A4/5. The series can be described thus: CYP inhibition in pooled human liver microsomes. It is filed as in vitro ADME. As to the method:
as §1

The target of series [5] is T2, CYP2C9 (Homo sapiens, UniProt P11712).
T2 construct: from tissue; host or cells: pooled human liver microsomes
T2 sequence (P11712 whole entry): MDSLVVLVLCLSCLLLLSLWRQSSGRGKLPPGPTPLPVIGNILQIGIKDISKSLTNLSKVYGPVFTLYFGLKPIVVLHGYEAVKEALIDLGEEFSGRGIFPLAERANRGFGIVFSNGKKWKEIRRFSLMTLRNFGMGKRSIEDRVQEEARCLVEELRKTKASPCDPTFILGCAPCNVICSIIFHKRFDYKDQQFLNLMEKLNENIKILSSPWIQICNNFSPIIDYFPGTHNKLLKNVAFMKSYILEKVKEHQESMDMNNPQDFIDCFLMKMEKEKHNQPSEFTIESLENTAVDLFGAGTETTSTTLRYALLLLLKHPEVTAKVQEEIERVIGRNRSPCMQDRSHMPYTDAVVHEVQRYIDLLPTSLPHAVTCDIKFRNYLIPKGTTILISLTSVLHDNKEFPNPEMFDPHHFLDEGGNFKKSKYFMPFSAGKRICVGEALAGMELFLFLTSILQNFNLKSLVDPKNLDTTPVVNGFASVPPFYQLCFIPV
The series can be described thus: CYP inhibition in pooled human liver microsomes. The format is in vitro ADME. The method, then: as §1
For orientation: Liver microsomes are vesicles of endoplasmic reticulum, rich in cytochrome P450 enzymes.

Series [6] has as its target T3, CYP2B6 (Homo sapiens, UniProt P20813).
T3 construct: from tissue; host or cells: pooled human liver microsomes
T3 sequence (P20813 1-491): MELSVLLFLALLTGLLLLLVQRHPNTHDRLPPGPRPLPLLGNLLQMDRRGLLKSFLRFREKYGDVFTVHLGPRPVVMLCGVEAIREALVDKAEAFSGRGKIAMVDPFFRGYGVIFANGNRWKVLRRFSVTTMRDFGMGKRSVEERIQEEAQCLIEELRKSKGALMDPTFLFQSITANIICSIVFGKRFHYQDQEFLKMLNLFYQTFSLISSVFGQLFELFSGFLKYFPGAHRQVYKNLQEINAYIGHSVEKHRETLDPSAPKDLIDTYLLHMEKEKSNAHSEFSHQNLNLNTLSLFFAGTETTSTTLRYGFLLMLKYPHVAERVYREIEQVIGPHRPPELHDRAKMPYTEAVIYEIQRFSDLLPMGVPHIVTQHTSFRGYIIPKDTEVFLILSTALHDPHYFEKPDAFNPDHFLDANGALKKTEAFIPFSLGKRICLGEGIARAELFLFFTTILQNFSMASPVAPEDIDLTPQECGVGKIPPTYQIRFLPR
The series can be described thus: CYP inhibition in pooled human liver microsomes. It is filed as in vitro ADME. The method, then:
as §1

[7] abbreviates: up to 30 μM, 30 minute preincubation with or without NADPH.
The mark [8] stands for this setting: up to / at 30 μM, human liver microsomes.

T1 sequence (P33261 whole entry): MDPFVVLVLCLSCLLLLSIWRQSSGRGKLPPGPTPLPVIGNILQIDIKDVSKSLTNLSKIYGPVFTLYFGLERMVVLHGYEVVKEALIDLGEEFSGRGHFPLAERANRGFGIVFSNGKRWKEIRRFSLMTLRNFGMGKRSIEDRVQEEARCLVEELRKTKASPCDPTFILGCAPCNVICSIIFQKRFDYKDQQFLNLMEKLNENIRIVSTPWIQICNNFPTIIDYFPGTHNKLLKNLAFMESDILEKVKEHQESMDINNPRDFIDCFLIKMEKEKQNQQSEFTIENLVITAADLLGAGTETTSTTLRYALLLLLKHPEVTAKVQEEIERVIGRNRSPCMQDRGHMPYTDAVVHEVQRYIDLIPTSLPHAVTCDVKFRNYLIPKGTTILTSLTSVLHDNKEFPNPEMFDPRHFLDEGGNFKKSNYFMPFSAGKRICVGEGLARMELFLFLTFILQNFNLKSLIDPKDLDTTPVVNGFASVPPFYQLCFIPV

In the case of `N#Cc1ccc(N2CCN(Cc3ccc(COc4cccc5c4CN(C4CCC(=O)NC4=O)C5=O)cc3)CC2)c(F)c1` (racemic) [Compound 1, 4-(4-(4-(((2-(2,6-dioxopiperidin-3-yl)-1-oxoisoindolin-4-yl)oxy)methyl)benzyl)piperazin-1-yl)-3-fluorobenzonitrile], the IC50 in series [1] lay within 0.07 to 19 nM.

Turning to `Nc1cccc2c1C(=O)N(C1CCC(=O)NC1=O)C2=O` (stereo not drawn) [Pomalidomide, pomalidomide], the “daratumumab-mediated ADCP” value in series [2] is given as “no enhanced ADCP”.

On to `O=C1CC[C@H](N2Cc3c(OCc4ccc(CN5CCN(c6ccc(F)cc6F)CC5)cc4)cccc3C2=O)C(=O)N1` [Compound B], for which the “direct inhibition of CYP2C19” value in series [3] (at 30 μM, human liver microsomes) was 45%. In addition, the “time-dependent inhibition of CYP2C19” value in series [3] (setting [7]) is given as “little to no time-dependent inhibition; also recorded: not a time-dependent inhibitor”. In addition, the IC50 in series [4] (30 minute preincubation with NADPH, substrate midazolam, read-out: shifted IC50 value (with NADPH) CYP3A4/5, midazolam) amounted to 2230 nM; in series [4] (30 minute preincubation with NADPH, substrate testosterone, read-out: shifted IC50 value (with NADPH) CYP3A4/5, testosterone), 1930 nM; in series [4] (substrate testosterone, read-out: direct inhibition IC50 CYP3A4/5 (testosterone)) it was 2920 nM. Moreover, in series [4] (up to 30 μM, 30 minute preincubation), the “time-dependent inhibition of CYP3A4/5 (overall finding)” value is “inhibited CYP3A4/5 in a time-dependent manner; also recorded: time-dependent inhibitor of CYP3A4/5”. The “direct inhibition of CYP3A4/5 (midazolam)” value in series [4] (up to 30 μM, substrate midazolam) is listed as “up to 30%”. In series [5] (setting [7]), the “time-dependent inhibition of CYP2C9” value is given as “little to no time-dependent inhibition; also recorded: not a time-dependent inhibitor”. Moreover, the “direct inhibition of CYP2C9” value in series [5] (setting [8]) is given as 38%. Also, in series [6] (setting [7]), the “time-dependent inhibition of CYP2B6” value is reported as “little to no time-dependent inhibition; also recorded: not a time-dependent inhibitor”. Further, the “direct inhibition of CYP2B6” value in series [6] (setting [8]) is on record as 59%.

For the molecule `N#Cc1ccc(N2CCN(Cc3ccc(COc4cccc5c4CN([C@H]4CCC(=O)NC4=O)C5=O)cc3)CC2)c(F)c1` [Compound 2, (S)-4-(4-(4-(((2-(2,6-dioxopiperidin-3-yl)-1-oxoisoindolin-4-yl)oxy)methyl)benzyl)piperazin-1-yl)-3-fluorobenzonitrile], in series [2] (72 h pretreatment, macrophages E:T 2:1), the “daratumumab-mediated ADCP of pretreated MM cells” value was “more sensitive to daratumumab-mediated ADCP compared to untreated and pomalidomide treated cells”. Further, the “daratumumab-mediated ADCP” value in series [2] is “no enhanced ADCP”. For the same molecule, the IC50 is over 30000 nM in series [3]; over 30000 nM in series [4] (human, microsomes); 0.07 to 19 nM in series [1]. For the same molecule, the inhibition (commonly the drop in the measured response relative to a control, in per cent) at 30 µM was 41% in series [3] (human, microsomes); 46% in series [4] (human, microsomes, direct inhibition of CYP3A4/5 (testosterone)); 59% in series [4] (human, microsomes, inhibition of CYP3A4/5 (testosterone) activity after preincubation with NADPH); 23% in series [4] (human, microsomes, inhibition of CYP3A4/5 (testosterone) activity after preincubation without NADPH); at most 30% in series [5] (human, microsomes); at most 30% in series [6] (human, microsomes).

(Values after patent US12029738B2, “Antiproliferative compounds and methods of use thereof” (Celgene Corporation, priority 2017, dated 2024).)
